# According to patent US8507509B2, “Saturated and insaturated bi- or tricyclic aryloxyacetamine derivatives and their use as fungicides” (Syngenta Crop Protection LLC, priority 2007, dated 2013):
# Experiments:
# Plasmopara viticola = Plasmopara viticola (downy mildew of grapevine), grapevine leaf disk assay, preventive; format: in vivo; conditions: foliar, 168 h, 200 ppm, grapevine leaf disks, assessed seven days after inoculation, read-out: control of fungal infection, Plasmopara viticola
# Septoria tritici = Septoria tritici (leaf blotch), liquid culture growth inhibition in nutrient broth; format: cell-based; conditions: Zymoseptoria tritici; 200 ppm; PDB broth, 24 C; inhibition of growth determined photometrically after 72 hrs; read-out: control of fungal infection, Septoria tritici
# [1] = tested on: Erysiphe graminis f.sp. tritici; assay: Erysiphe graminis f.sp. tritici (wheat powdery mildew), wheat leaf segment assay, preventive; format: in vivo; conditions: Blumeria graminis, foliar, 96 h; 200 ppm; wheat leaf segments; assessed four days after inoculation; read-out: control of fungal infection, Etysiphe graminis f.sp. tritici
# Phytophthora infestans = assay: whole plant or invertebrate; format: in vivo; conditions: in Solanum lycopersicum, foliar, 96 h, read-out: control of fungal infection, Phytophthora infestans
# Pythium ultimum = Pythium ultimum (Damping off), liquid culture growth inhibition in potato dextrose broth; format: cell-based; conditions: Globisporangium ultimum; 20 ppm; potato dextrose broth, 24° C.; inhibition of growth determined photometrically after 48 hours; read-out: control of fungal infection, Pythium ultimum
Compound,pest or weed control at 200 ppm (Plasmopara viticola) [%],inhibition of growth at 200 ppm (Septoria tritici) [%],pest or weed control at 200 ppm [1] [%],pest or weed control at 200 ppm (Phytophthora infestans) [%],inhibition of growth at 20 ppm (Pythium ultimum) [%]
"CSC(Oc1ccc2ncc(Br)cc2c1)C(=O)NC(C)(C)C=NOCC(C)C (centres unmarked) [Compound No. 18, 2-(3-Bromo-quinolin-6-yloxy)-N-(2-iso-butoxyimino-1,1-dimethyl-ethyl)-2-methylsulfanyl-acetamide]",≥ 60,≥ 60,–,–,–
"C#Cc1cnc2c(C)cc(OC(CC)C(=O)NC(C)(C)C=NOC(C)(C)C)cc2c1 (centres unmarked) [Compound No. 137, N-(2-tert-Butoxyimino-1,1-dimethyl-ethyl)-2-(3-ethynyl-8-methyl-quinolin-6-yloxy)-butyramide]",–,≥ 60,≥ 60,–,–
"C=CCON=CC(C)(C)NC(=O)C(Oc1cc(C)c2ncc(Br)cc2c1)SC (centres unmarked) [Compound No. 28, N-(2-Allyloxyimino-1,1-dimethyl-ethyl)-2-(3-bromo-8-methyl-quinolin-6-yloxy)-2-methylsulfanyl-acetamide]",≥ 60,≥ 60,–,–,–
"CCCCON=CC(C)(C)NC(=O)C(Oc1ccc2ncc(Br)cc2c1)SC (centres unmarked) [Compound No. 14, 2-(3-Bromo-quinolin-6-yloxy)-N-(2-butoxyimino-1,1-dimethyl-ethyl)-2-methylsulfanyl-acetamide]",≥ 60,–,–,≥ 60,≥ 60
"CSC(Oc1cc(C)c2ncc(I)cc2c1)C(=O)NC(C)(C)CC=NOC(C)(C)C (centres unmarked) [Compound No. 43, N-(3-tert-Butoxyimino-1,1-dimethyl-propyl)-2-(3-iodo-8-methyl-quinolin-6-yloxy)-2-methylsulfanyl-acetamide]",–,≥ 60,–,–,–
"CSC(Oc1cc(C)c2ncc(Br)cc2c1)C(=O)NC(C)(C)C=NOCC(C)C (centres unmarked) [Compound No. 25, 2-(3-Bromo-8-methyl-quinolin-6-yloxy)-N-(2-isobutoxyimino-1,1-dimethyl-ethyl)-2-methylsulfanyl-acetamide]",–,≥ 60,–,–,–
"CCC(Oc1ccc2ncc(Br)cc2c1)C(=O)NC(C)(C)C=NO (centres unmarked) [Compound No. 150, 2-(3-Bromo-quinolin-6-yloxy)-N-(2-hydroxyimino-1,1-dimethyl-ethyl)-butyramide]",–,–,–,≥ 60,≥ 60
"CSC(Oc1ccc2ncc(Br)cc2c1)C(=O)NC(C)(C)C=NOCc1ccccc1 (centres unmarked) [Compound No. 109, N-(2-Benzyloxyimino-1,1-dimethyl-ethyl)-2-(3-bromo-quinolin-6-yloxy)-2-methylsulfanyl-acetamide]",≥ 60,≥ 60,–,≥ 60,–
"CON=CC(C)(C)NC(=O)C(Oc1cc(Cl)c2ncc(Br)cc2c1)SC (centres unmarked) [Compound No. 35, 2-(3-Bromo-8-chloro-quinolin-6-yloxy)-N-(2-methoxyimino-1,1-dimethyl-ethyl)-2-methylsulfanyl-acetamide]",–,≥ 60,–,–,≥ 60
"C=CCON=C(Cc1ccsc1)C(C)(C)NC(=O)C(Oc1ccc2ncc(Br)cc2c1)SC (centres unmarked) [Compound No. 126, N-{2-[(E or Z)-Allyloxyimino]-1,1-dimethyl-3-thiophen-3-yl-propyl}-2-(3-bromo-quinolin-6-yloxy)-2-methylsulfanyl-acetamide]",≥ 60,≥ 60,–,–,–
"CCON=CC(C)(C)NC(=O)C(CC)Oc1ccc2ncc(I)cc2c1 (centres unmarked) [Compound No. 3, N-(2-Ethoxyimino-1,1-dimethyl-ethyl)-2-(3-iodo-quinolin-6-yloxy)-butyramide]",≥ 60,≥ 60,≥ 60,≥ 60,–
"CCON=CC(C)(C)NC(=O)C(Oc1cc(Cl)c2ncc(Br)cc2c1)SC (centres unmarked) [Compound No. 36, 2-(3-Bromo-8-chloro-quinolin-6-yloxy)-N-(2-ethoxyimino-1,1-dimethyl-ethyl)-2-methylsulfanyl-acetamide]",≥ 60,≥ 60,≥ 60,–,–
"CSC(Oc1cc(C)c2ncc(Br)cc2c1)C(=O)NC(C)(C)C=NOCc1ccccc1 (centres unmarked) [Compound No. 110, N-(2-Benzyloxyimino-1,1-dimethyl-ethyl)-2-(3-bromo-8-methyl-quinolin-6-yloxy)-2-methylsulfanyl-acetamide]",–,≥ 60,–,–,–
"CON=CCC(C)(C)NC(=O)C(Oc1ccc2ncc(I)cc2c1)SC (centres unmarked) [Compound No. 92, 2-(3-iodo-quinolin-6-yloxy)-N-(3-methoxyimino-1,1-dimethyl-propyl)-2-methylsulfanyl-acetamide]",–,–,–,–,≥ 60
"CON=C(C)CC(C)(C)NC(=O)C(Oc1ccc2ncc(Br)cc2c1)SC (centres unmarked) [Compound No. 104, 2-(3-Bromo-quinolin-6-yloxy)-N-(3-methoxyimino-1,1-dimethyl-butyl)-2-methylsulfanyl-acetamide]",≥ 60,–,≥ 60,≥ 60,–
"CON=C(Cc1ccccn1)C(C)(C)NC(=O)C(Oc1ccc2ncc(Br)cc2c1)SC (centres unmarked) [Compound No. 127, 2-(3-Bromo-quinolin-6-yloxy)-N-{2-[(E or Z)-methoxyimino]-1,1-dimethyl-3-pyridin-2-yl-propyl}-2-methylsulfanyl-acetamide]",≥ 60,≥ 60,–,–,≥ 60
"CSC(Oc1ccc2ncc(Br)cc2c1)C(=O)NC(C)(C)C=NOC(C)(C)C (centres unmarked) [Compound No. 12, 2-(3-Bromo-quinolin-6-yloxy)-N-(2-tert-butoxyimino-1,1-dimethyl-ethyl)-2-methylsulfanyl-acetamide]",–,≥ 60,–,–,≥ 60
"C#Cc1cnc2c(C)cc(OC(CC)C(=O)NC(C)(C)C=NOCC(C)C)cc2c1 (centres unmarked) [Compound No. 136, 2-(3-Ethynyl-8-methyl-quinolin-6-yloxy)-N-(2-isobutoxyimino-1,1-dimethyl-ethyl)-butyramide]",–,≥ 60,–,–,–
"CCc1cc(OC(SC)C(=O)NC(C)(C)C=NOC)cc2cc(Br)cnc12 (centres unmarked) [Compound No. 133, 2-(3-Bromo-8-ethyl-quinolin-6-yloxy)-N-(2-methoxyimino-1,1-dimethyl-ethyl)-2-methylsulfanyl-acetamide]",≥ 60,≥ 60,–,–,–
"CCON=C(Cc1ccccn1)C(C)(C)NC(=O)C(Oc1ccc2ncc(Br)cc2c1)SC (centres unmarked) [Compound No. 128, 2-(3-Bromo-quinolin-6-yloxy)-N-{2-[(E or Z)-ethoxyimino]-1,1-dimethyl-3-pyridin-2-yl-propyl}-2-methylsulfanyl-acetamide]",–,≥ 60,–,–,≥ 60
"CCCCON=CC(C)(C)NC(=O)C(Oc1cc(C)c2ncc(Br)cc2c1)SC (centres unmarked) [Compound No. 30, 2-(3-Bromo-8-methyl-quinolin-6-yloxy)-N-(2-butoxyimino-1,1-dimethyl-ethyl)-2-methylsulfanyl-acetamide]",–,≥ 60,–,–,–
"CSC(Oc1cc(C)c2ncc(I)cc2c1)C(=O)NC(C)(C)CC=NOCc1ccccc1 (centres unmarked) [Compound No. 47, N-(3-Benzyloxyimino-1,1-dimethyl-propyl)-2-(3-iodo-8-methyl-quinolin-6-yloxy)-2-methylsulfanyl-acetamide]",≥ 60,≥ 60,–,–,–
"CON=CC(C)(C)NC(=O)C(Oc1ccc2ncc(C#C[Si](C)(C)C)cc2c1)SC (centres unmarked) [Compound No. 37, N-(2-methoxyimino-1,1-dimethyl-ethyl)-2-methylsulfanyl-2-(3-trimethylsilanylethynyl-quinolin-6-yloxy)-acetamide]",≥ 60,≥ 60,≥ 60,≥ 60,–
"C=CCON=CC(C)(C)NC(=O)C(CC)Oc1cc(C)c2ncc(I)cc2c1 (centres unmarked) [Compound No. 7, N-(2-allyloxyimino-1,1-dimethyl-ethyl)-2-(3-iodo-8-methyl-quinolin-6-yloxy)-butyramide]",–,≥ 60,≥ 60,–,–
"CON=CC(C)(C)NC(=O)C(Cc1cc(C)c2ccsc2c1)SC (centres unmarked) [Compound No. 82, N-(2-Methoxyimino-1,1-dimethyl-ethyl)-3-(4-methyl-benzo[b]thiophen-6-yl)-2-methylsulfanyl-propionamide]",≥ 60,≥ 60,–,–,≥ 60
"CCOC(=O)C(C)(C)O/N=C/C(C)(C)NC(=O)C(Oc1cc(C)c2ncc(Br)cc2c1)SC (centres unmarked) [Compound No. 24, 2-[2-[2-(3-Bromo-8-methyl-quinolin-6-yloxy)-2-methylsulfanyl-acetylamino]-2-methyl-prop-(E)-ylideneaminooxy]-2-methyl-propionic acid ethyl ester]",–,≥ 60,–,–,–
"CSC(Oc1cc(C)c2ncc(Br)cc2c1)C(=O)NC(C)(C)C=NOC(C)(C)C (centres unmarked) [Compound No. 22, 2-(3-Bromo-8-methyl-quinolin-6-yloxy)-N-(2-tert-butoxyimino-1,1-dimethyl-ethyl)-2-methylsulfanyl-acetamide]",–,≥ 60,–,–,–
"CSC(Oc1ccc2ncc(Br)cc2c1)C(=O)NC(C)(C)C=NOCc1ccc(Cl)cc1 (centres unmarked) [Compound No. 9, 2-(3-Bromo-quinolin-6-yloxy)-N-[2-(4-chloro-benzyloxyimino)-1,1-dimethyl-ethyl]-2-methylsulfanyl-acetamide]",–,≥ 60,–,–,–
"CCON=C(Cc1ccsc1)C(C)(C)NC(=O)C(Oc1ccc2ncc(Br)cc2c1)SC (centres unmarked) [Compound No. 125, 2-(3-Bromo-quinolin-6-yloxy)-N-{2-[(E or Z)-ethoxyimino]-1,1-dimethyl-3-thiophen-3-yl-propyl}-2-methylsulfanyl-acetamide]",≥ 60,≥ 60,–,–,–
